Values after ≈ are worked out from the molar mass of the structure shown. Like-named read-outs stand apart in the source and are kept apart here.
Experiments:
[1] = test system: Mycobacterium Tuberculosis Infected Macrophages; settings: intracellular, published study; cited from earlier work
M. tuberculosis H37Rv [2] = assay: MIC, IC50 and IC90 under aerobic conditions (growth after five days); format: cell-based, Mycobacterium tuberculosis
M. tuberculosis H37Rv [3] = assay: Minimum bactericidal concentration (kill kinetics, 21 days); format: cell-based; settings: for MBC: Mycobacterium tuberculosis, H37RV
[4] = test system: Vero African green monkey kidney cell line; assay: Cytotoxicity towards eukaryotic cells; format: cell-based; settings: Chlorocebus sabaeus, 48 h, two days
[5] = test system: Murine J774 macrophages infected with a luminescent strain of H37Rv; format: cell-based, M. tuberculosis; settings: intracellular
M. tuberculosis = assay: IC50, IC90 and MIC of amikacin one and two component complexes; format: cell-based; settings: Mycobacterium tuberculosis
H37Rv strain = assay: MIC of amikacin complexes, H37Rv strain; format: cell-based, M. tuberculosis; settings: Mycobacterium tuberculosis, second set
[6] = clinical trials, compared to placebo groups; cited from earlier work
active TB = assay: MIC of capreomycin one and two component systems against active TB; format: cell-based, Mycobacterium tuberculosis
Protocol: The first antibiotic complex investigated with one and two component systems consisted of the second-line TB drug capreomycin which was bound to the copper(II) cation and the aggregate forming water soluble unbranched polymer PEG-3350. […] MIC values are defined as the lowest concentration of an antimicrobial (i.e. antifungal, antibiotic or bacteriostatic) drug that will inhibit the visible growth of a microorganism after incubation and is a common unit used to describe the level of efficacy of an antibiotic against a bacterium.

[7] = rats (oral); cited from earlier work
[8] = in vivo; cited from earlier work
[9] = Mycobacterium tuberculosis, H37RV, aerobic conditions, glucose series
[10] = Mycobacterium tuberculosis, H37RV, aerobic conditions, isoniazid-sucrose series, equal molar ratios
[11] = Mycobacterium tuberculosis, H37RV, aerobic conditions, rifampicin complexes, second set

## COc1c(N2CC[C@@H](C(C)(C)N)C2)c(F)cc2c(=O)c3c(=O)[nH]sc3n(C3CC3)c12 [ACH-702]
[1]
  drop of activity, log(kill) units: ~1.3 log(kill) units

## NNC(=O)c1ccncc1 [Isoniazid (INH), isoniazid]
M. tuberculosis H37Rv [2]; [9]
  IC50: 470 nM
  IC90: 620 nM
M. tuberculosis H37Rv [2]; Mycobacterium tuberculosis, H37RV, aerobic conditions, glucose series, read-out: MIC
  MIC: 0.64 µM (≈ 0.0878 µg/mL)
M. tuberculosis H37Rv [2]; [10]
  IC50: 630 nM
  IC90: 1000 nM
M. tuberculosis H37Rv [2]; Mycobacterium tuberculosis, H37RV, aerobic conditions, isoniazid-sucrose series, equal molar ratios, read-out: MIC
  MIC: 0.97 µM
M. tuberculosis H37Rv [3]; isoniazid-sucrose series
  MBC: 0.3 µM (≈ 0.0411 µg/mL)
[4]
  IC50: > 100000 nM
[5]; average of table eight
  average log(kill) value: 2.5
[5]; concentration 1.2 μM
  Log Kill: 2.5
[5]; concentration 12 μM
  Log Kill: 2.5

## Cn1nnc(-c2ccc(-c3ccc(N4C[C@H](CO)OC4=O)cc3F)cn2)n1 [Tedizolid]
[1]
  drop of activity, log(kill) units: approximately 1.4 log(kill) units

## NCC[C@H](O)C(=O)N[C@@H]1C[C@H](N)[C@@H](O[C@H]2O[C@H](CN)[C@@H](O)[C@H](O)[C@H]2O)[C@H](O)[C@H]1O[C@H]1O[C@H](CO)[C@@H](O)[C@H](N)[C@H]1O [amikacin]
M. tuberculosis
  IC50: 216 nM
  IC90: 328 nM
  MIC: 0.39 µM
H37Rv strain
  MIC: 0.256 µM

## COc1nc2ccc(Br)cc2cc1[C@@H](c1ccccc1)[C@@](O)(CCN(C)C)c1cccc2ccccc12 [bedaquiline, Bedaquiline]
[6]
  deaths in recipient groups: 11.4%

## [Cl][Cu][Cl] [copper(II) chloride]
Active TB
  MIC: 0.39 µM
[7]
  LD50: 140 mg/kg

## CCO [ethyl alcohol]
[8]
  LD50: 14,000 mg/kg

## CO[C@H]1/C=C/O[C@@]2(C)Oc3c(C)c(O)c4c(O)c(c(/C=N/N5CCN(C)CC5)c(O)c4c3C2=O)NC(=O)/C(C)=C\C=C\[C@H](C)[C@H](O)[C@@H](C)[C@@H](O)[C@@H](C)[C@H](OC(C)=O)[C@@H]1C [rifampicin]
M. tuberculosis H37Rv [2]; Mycobacterium tuberculosis, H37RV, H37Rv strain, rifampicin complexes, first set, read-out: MIC
  MIC: 0.006 µM (≈ 0.00494 µg/mL)
M. tuberculosis H37Rv [2]; [11]
  IC50: 3 nM
  IC90: 3 nM
M. tuberculosis H37Rv [2]; Mycobacterium tuberculosis, H37RV, aerobic conditions, rifampicin complexes, second set, read-out: MIC
  MIC: 0.004 µM (≈ 0.00329 µg/mL)
M. tuberculosis H37Rv [3]; rifampicin complexes
  MBC: 0.06 µM (≈ 0.0494 µg/mL)
  MBC/MIC: 15

## [Cl-].[Na+] [sodium chloride]
[8]
  LD50: 3,000 mg/kg

## COc1cc(C=O)ccc1O [vanillin]
[8]
  LD50: 1,580 mg/kg

## capreomycin
Active TB
  MIC: 3.13 µM

## copper (II) chloride dihydrate
M. tuberculosis H37Rv [2]; H37Rv strain, rifampicin complexes, first set
  MIC: 105.7 µM

## copper gluconate
[7]
  LD50: 1710 mg/kg

## vitamin A
[8]
  LD50: 2,000 mg/kg
